# According to ChEMBL document CHEMBL3627699, “Design, synthesis and biological evaluation of 3-aryl-rhodanine benzoic acids as anti-apoptotic protein Bcl-2 inhibitors” (Bioorg Med Chem Lett, 2015):
# How the values were obtained:
# [1] = molecular target: T1, Apoptosis regulator Bcl-2 (Homo sapiens, UniProt P10415); assay: Inhibition of Bcl-2 (unknown origin) by fluorescence polarization assay
# [2] = molecular target: T1, Apoptosis regulator Bcl-2; assay: Inhibition of Bcl-2 (unknown origin) at 100 uM by fluorescence polarization assay
# K562 = assay: Antiproliferative activity against human K562 cells by MTT assay; format: functional, cell-based
# MDA-MB-231 = assay: Antiproliferative activity against human MDA-MB-231 cells by MTT assay; format: functional, cell-based
# [3] = molecular target: Induced myeloid leukemia cell differentiation protein Mcl-1 (Homo sapiens, UniProt Q07820); assay: Inhibition of Mcl-1 (unknown origin) by fluorescence polarization assay
# Sequence of Induced myeloid leukemia cell differentiation protein Mcl-1 (Q07820 whole entry): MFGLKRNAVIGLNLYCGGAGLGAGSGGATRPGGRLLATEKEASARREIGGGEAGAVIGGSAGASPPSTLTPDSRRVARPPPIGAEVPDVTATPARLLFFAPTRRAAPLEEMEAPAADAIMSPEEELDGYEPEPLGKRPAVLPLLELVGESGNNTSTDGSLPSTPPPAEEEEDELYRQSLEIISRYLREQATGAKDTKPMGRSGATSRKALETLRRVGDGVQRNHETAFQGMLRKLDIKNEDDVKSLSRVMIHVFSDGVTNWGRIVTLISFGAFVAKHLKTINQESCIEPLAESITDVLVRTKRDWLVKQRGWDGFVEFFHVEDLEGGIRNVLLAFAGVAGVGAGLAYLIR
# Bcl-2-like protein 1 = Bcl-2-like protein 1 (Homo sapiens, UniProt Q07817); assay: Inhibition of Bcl-xL (unknown origin) by fluorescence polarization assay
# Sequence of Bcl-2-like protein 1 (Q07817 whole entry): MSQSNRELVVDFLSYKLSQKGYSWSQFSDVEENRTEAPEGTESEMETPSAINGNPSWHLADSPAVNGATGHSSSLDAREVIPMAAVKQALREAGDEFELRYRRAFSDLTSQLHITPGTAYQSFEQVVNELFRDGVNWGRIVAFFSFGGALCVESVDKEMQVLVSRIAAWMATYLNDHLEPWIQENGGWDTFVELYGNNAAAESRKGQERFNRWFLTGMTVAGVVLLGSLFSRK
# PC-3 = assay: Antiproliferative activity against human PC3 cells by MTT assay; format: functional, cell-based
# T1 sequence (P10415 whole entry): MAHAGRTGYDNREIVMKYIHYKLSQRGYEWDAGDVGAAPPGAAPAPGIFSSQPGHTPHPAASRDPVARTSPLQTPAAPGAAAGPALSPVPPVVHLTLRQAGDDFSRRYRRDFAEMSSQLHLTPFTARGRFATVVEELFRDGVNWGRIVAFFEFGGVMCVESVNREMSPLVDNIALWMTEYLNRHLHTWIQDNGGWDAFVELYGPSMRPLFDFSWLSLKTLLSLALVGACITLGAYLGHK
Ki [1],SMILES,further results
> 10 µM,O=C(O)c1ccc(/C=C2\SC(=S)N(c3ccccc3)C2=O)cc1,inhibition [2]: 18%
> 10 µM,O=C(Nc1ccc(O)c(C(=O)O)c1)c1ccc(/C=C2\SC(=S)N(c3ccccc3)C2=O)cc1,–
> 10 µM,Cc1ccccc1N1C(=O)/C(=C/c2ccc(OCC(=O)Nc3ccc(C(=O)O)cc3)cc2)SC1=S,–
> 10 µM,Cc1ccc(N2C(=O)/C(=C/c3ccc(OCc4ccc(C(=O)O)cc4)cc3)SC2=S)cc1,–
7.6 µM,Cc1cccc(C)c1N1C(=O)/C(=C/c2ccc(OCC(=O)Nc3ccc(C(=O)O)cc3)cc2)SC1=S,–
3.1 µM,Cc1ccccc1N1C(=O)/C(=C/c2cccc(OCc3ccc(C(=O)O)cc3)c2)SC1=S,Ki [3]: 3.2 µM; Ki (Bcl-2-like protein 1): > 10 µM
1.6 µM,COc1ccccc1N1C(=O)/C(=C/c2cccc(OCc3ccc(C(=O)O)cc3)c2)SC1=S,Ki [3]: 3.7 µM; Ki (Bcl-2-like protein 1): > 10 µM
> 10 µM,O=C(O)c1ccc(COc2ccc(/C=C3\SC(=S)N(c4cccc(C(F)(F)F)c4)C3=O)cc2)cc1,–
3.1 µM,O=C(O)c1ccc([N+](=O)[O-])c(COc2ccc(/C=C3\SC(=S)N(c4ccc([N+](=O)[O-])cc4)C3=O)cc2)c1,–
2 µM,COc1ccccc1N1C(=O)/C(=C/c2ccc(OCc3ccc(C(=O)O)cc3)cc2)SC1=S,Ki [3]: 3.9 µM; Ki (Bcl-2-like protein 1): > 10 µM
> 10 µM,CC(=O)c1ccc(N2C(=O)/C(=C/c3ccc(OCc4ccc(C(=O)O)cc4)cc3)SC2=S)cc1,–
> 10 µM,O=C(O)c1ccc(COc2cccc(/C=C3\SC(=S)N(c4ccc([N+](=O)[O-])cc4)C3=O)c2)cc1,–
> 10 µM,O=C(O)c1ccc(COc2ccc(/C=C3\SC(=S)N(c4ccc(F)cc4)C3=O)cc2)cc1,–
> 10 µM,O=C(COc1ccc(/C=C2\SC(=S)N(c3ccc([N+](=O)[O-])cc3)C2=O)cc1)Nc1ccc(C(=O)O)cc1,–
> 10 µM,O=C(O)c1ccc(COc2ccc(/C=C3\SC(=S)N(Cc4ccc(F)cc4)C3=O)cc2)cc1,–
> 10 µM,O=C(O)c1ccc(COc2ccc(/C=C3\SC(=S)N(c4ccc([N+](=O)[O-])cc4)C3=O)cc2)cc1,–

# Continued, compound first:
SMILES,Ki [1],further results
O=C(O)c1ccc(COc2ccc(/C=C3\SC(=S)N(c4c(F)cccc4F)C3=O)cc2)cc1,> 10 µM,–
Cc1cc2c(C(C)C)c(O)c(O)c(C=O)c2c(O)c1-c1c(C)cc2c(C(C)C)c(O)c(O)c(C=O)c2c1O [GOSSYPOL],–,IC50 (K562): 7.31 µM; IC50 (MDA-MB-231): 4.8 µM; Ki [3]: 0.31 µM; Ki (Bcl-2-like protein 1): 0.64 µM; IC50 (PC-3): 5.61 µM
O=C(O)c1ccc(COc2ccc(/C=C3\SC(=S)N(c4cccc([N+](=O)[O-])c4)C3=O)cc2)cc1,9.6 µM,–
O=C(Nc1ccc(O)c(C(=O)O)c1)c1ccc(/C=C2\SC(=S)N(c3ccc([N+](=O)[O-])cc3)C2=O)cc1,> 10 µM,–
Cc1ccc(S(=O)(=O)NC(=O)[C@H](Cc2ccccc2)N2C(=O)/C(=C/c3ccc(-c4ccccc4)cc3)SC2=S)cc1,0.5 µM,IC50 (K562): 32.8 µM; IC50 (MDA-MB-231): > 30 µM; Ki [3]: 0.29 µM; Ki (Bcl-2-like protein 1): 0.57 µM; IC50 (PC-3): > 30 µM
COc1ccc(N2C(=O)/C(=C/c3ccc(OCc4ccc(C(=O)O)cc4)cc3)SC2=S)cc1,> 10 µM,–
O=C(O)c1ccc(COc2ccc(/C=C3\SC(=S)N(c4ccccc4)C3=O)cc2)cc1,> 10 µM,–
Cc1cccc(N2C(=O)/C(=C/c3ccc(OCC(=O)Nc4ccc(C(=O)O)cc4)cc3)SC2=S)c1,> 10 µM,–
Cc1cccc(C)c1N1C(=O)/C(=C/c2ccc(OCc3ccc(C(=O)O)cc3)cc2)SC1=S,0.9 µM,IC50 (K562): 46.6 µM; IC50 (MDA-MB-231): 25.6 µM; Ki [3]: 0.72 µM; Ki (Bcl-2-like protein 1): 3.9 µM; IC50 (PC-3): 25.8 µM
O=C(COc1ccc(/C=C2\SC(=S)N(c3ccccc3)C2=O)cc1)Nc1ccc(C(=O)O)cc1,> 10 µM,–
O=C(O)c1ccc(COc2ccc(/C=C3\SC(=S)N(c4ccc(Cl)cc4)C3=O)cc2)cc1,> 10 µM,–
O=C(O)c1ccc([N+](=O)[O-])c(COc2ccc(/C=C3\SC(=S)N(c4ccccc4)C3=O)cc2)c1,9 µM,–
O=C(O)c1ccc(COc2cccc(/C=C3\SC(=S)N(c4ccccc4)C3=O)c2)cc1,> 10 µM,–
Cc1cccc(N2C(=O)/C(=C/c3ccc(OCc4ccc(C(=O)O)cc4)cc3)SC2=S)c1,> 10 µM,–
Cc1ccc(N2C(=O)/C(=C/c3ccc(OCC(=O)Nc4ccc(C(=O)O)cc4)cc3)SC2=S)cc1,> 10 µM,–
O=C(O)c1ccc(COc2ccc(/C=C3\SC(=S)N(c4ccc(Br)cc4)C3=O)cc2)cc1,0.61 µM,IC50 (K562): 43.8 µM; IC50 (MDA-MB-231): 19.8 µM; Ki [3]: 0.7 µM; Ki (Bcl-2-like protein 1): > 10 µM; IC50 (PC-3): 18.9 µM
COc1ccccc1N1C(=O)/C(=C/c2ccc(OCC(=O)Nc3ccc(C(=O)O)cc3)cc2)SC1=S,10 µM,–
O=C(O)c1ccc(COc2ccc(/C=C3\SC(=S)N(c4ccc(I)cc4)C3=O)cc2)cc1,4.3 µM,Ki [3]: 1.6 µM; Ki (Bcl-2-like protein 1): > 10 µM
